Source: ChEMBL document CHEMBL1130857, “Synthesis and biological activity of lactones en route to Altohyrtin A” (1998)
Calls of active or inactive are those of the source.

Assays:
[1] = Antitumor activity was evaluated by the growth inhibition of Lung-NSC NCI-H460 cells; Active; type: functional; conditions: Homo sapiens
[2] = Antitumor activity was evaluated by the lethal concentration of Lung-NSC NCI-H460 cells; Active; type: functional; conditions: Homo sapiens, read-out: LC50 (the source's name)
[3] = Antitumor activity was evaluated by the total growth inhibition of Lung-NSC NCI-H460 cells; Active; type: functional; conditions: Homo sapiens, NCI-H460, read-out: TGI50
[4] = Antitumor activity was evaluated by the growth inhibition of Pancreas-a BXPC-3 cells; Active; type: functional; conditions: Homo sapiens
[5] = Antitumor activity was evaluated by the lethal concentration of Pancreas-a BXPC-3 cells; Active; type: functional; conditions: Homo sapiens, read-out: LC50 (the source's name)
[6] = Antitumor activity was evaluated by the total growth inhibition of Pancreas-a BXPC-3 cells; Active; type: functional; conditions: Homo sapiens, BXPC-3, read-out: TGI50
Homo sapiens [7] = species: Homo sapiens; experiment: Antitumor activity was evaluated by the growth inhibition of Pharynx-sq FADU cells; Active; type: functional
Homo sapiens [8] = species: Homo sapiens; experiment: Antitumor activity was evaluated by the lethal concentration of Pharynx-sq FADU cells; Active; type: functional; conditions: read-out: LC50 (the source's name)
Homo sapiens [9] = species: Homo sapiens; experiment: Antitumor activity was evaluated by the total growth inhibition of Pharynx-sq FADU cells; Active; type: functional; conditions: read-out: TGI50
[10] = Antitumor activity was evaluated by the growth inhibition of Prostate DU-145 cells; Active; type: functional; conditions: Homo sapiens
[11] = Antitumor activity was evaluated by the lethal concentration of Prostate DU-145 cells; Active; type: functional; conditions: Homo sapiens, read-out: LC50 (the source's name)
[12] = Antitumor activity was evaluated by the total growth inhibition of Prostate DU-145 cells; Active; type: functional; conditions: Homo sapiens, DU-145, read-out: TGI50
[13] = Antitumor activity was evaluated by the growth inhibition of Thyroid ca KAT-4 cells; Active; type: functional; conditions: Homo sapiens
[14] = Antitumor activity was evaluated by the lethal concentration of Thyroid ca KAT-4 cells; Active; type: functional; conditions: Homo sapiens, read-out: LC50 (the source's name)
[15] = Antitumor activity was evaluated by the total growth inhibition of Thyroid ca KAT-4 cells; Active; type: functional; conditions: Homo sapiens, KAT-4, read-out: TGI50
[16] = Antitumor activity was evaluated by the growth inhibition of Thyroid ca SW 1736 cells; Active; type: functional; conditions: Homo sapiens
[17] = Antitumor activity was evaluated by the lethal concentration of Thyroid ca SW 1736 cells; Active; type: functional; conditions: Homo sapiens, read-out: LC50 (the source's name)
[18] = Antitumor activity was evaluated by the total growth inhibition of Thyroid ca SW 1736 cells; Active; type: functional; conditions: Homo sapiens, SW-1736, read-out: TGI50
NCI-H460 = experiment: Antitumor activity against Lung-NSC NCI-H460 cells was evaluated; No biological activity; type: functional, cell-based; conditions: Homo sapiens
BXPC-3 = experiment: Antitumor activity against Pancreas-a BXPC-3 cells was evaluated; No biological activity; type: functional, cell-based; conditions: Homo sapiens
Homo sapiens [19] = species: Homo sapiens; experiment: Antitumor activity against Pharynx-sq FADU cells was evaluated; No biological activity; type: functional
DU-145 = experiment: Antitumor activity against Prostate DU-145 cells was evaluated; No biological activity; type: functional, cell-based; conditions: Homo sapiens
KAT-4 = experiment: Antitumor activity against Thyroid ca KAT-4 cells was evaluated; No biological activity; type: functional, cell-based; conditions: Homo sapiens
SW 1736 = experiment: Antitumor activity against Thyroid ca SW 1736 cells was evaluated; No biological activity; type: functional, cell-based; conditions: Homo sapiens

C[C@@H]1[C@@H](O)[C@H](O)C(=O)O[C@H]1[C@H]1COC(C)(C)O1
2.9 mg/L: GI50 [1]
3.7 mg/L: GI50 (Homo sapiens [7])
> 10000 mg/L: CC50 [2] | CC50 [5] | CC50 (Homo sapiens [8]) | CC50 [11] | CC50 [14] | CC50 [17]
> 10 mg/L: GI50 [3] | GI50 [4] | GI50 [6] | GI50 (Homo sapiens [9]) | GI50 [12] | GI50 [13] | GI50 [15] | GI50 [18]
8.5 mg/L: GI50 [16]
2.7 mg/L: GI50 [10]

C[C@H]1C(COCc2ccccc2)OC(=O)[C@@H](O)[C@@H]1O (some centres undefined)
inactive: Activity (NCI-H460) | Activity (BXPC-3) | Activity (Homo sapiens [19]) | Activity (DU-145) | Activity (KAT-4) | Activity (SW 1736)
